Source: PMC11171218, “N-Benzylated 5-Hydroxybenzothiophene-2-carboxamides as Multi-Targeted Clk/Dyrk Inhibitors and Potential Anticancer Agents” (Cancers, 2024)

Experiments:
Clk1 = Clk1 (Homo sapiens, UniProt P49759); assay: Z'-LYTE kinase inhibition assay, Clk1; assay type: biochemical; conditions: for IC50: ATP conc. equivalent to Km; for inhibition at 1 µM: read-out: Clk1 % Inh. At 1 µM
Excerpt: (§1) 3. Experimental procedure for protein kinases and inhibition assays.
(§2) 3.1 The Z ́ -LYTE biochemical assay for screening and IC 50 determination for Clk1, Dyrk1A, Dyrk1B, Clk2 and Clk3 kinases.
(§3) The assay employs a fluorescence-based, coupled-enzyme format and is based on the differential sensitivity of phosphorylated and non-phosphorylated peptides to proteolytic cleavage. The peptide substrate is labeled with two fluorophores-one at each end-that make up a FRET pair. In the primary reaction, the kinase transfers the gamma-phosphate of ATP to a single tyrosine, serine, or threonine residue in a synthetic FRET-peptide. In the secondary reaction, a site-specific protease recognizes and cleaves non-phosphorylated FRET-peptides. Phosphorylation of FRET-peptides suppresses cleavage by the Development Reagent. Cleavage disrupts FRET between the donor (i.e., coumarin) and acceptor (i.e., fluorescein) fluorophores on the FRET-peptide, whereas uncleaved, phosphorylated FRET-peptides maintain FRET. A ratiometric method, which calculates the ratio (the Emission Ratio) of donor emission to acceptor emission after excitation of the donor fluorophore at 400 nm, is used to quantitate reaction progress. Both cleaved and uncleaved FRET-peptides contribute to the fluorescence signals and therefore to the Emission Ratio. The extent of phosphorylation of the FRET-peptide can be calculated from the Emission Ratio. The Emission Ratio will remain low if the FRET-peptide is phosphorylated (i.e., no kinase inhibition) and will be high if the FRET-peptide is non-phosphorylated (i.e., kinase inhibition).
(§4) The IC 50 values were determined for compounds displaying significant % inhibition in the screening step. IC 50 determination was done through testing at a range of concentrations with two […]
two independent experiments.
3.1.1 Clk1 kinase assay specific conditions:
The 2x Clk1 / Ser/Thr 09 mixture is prepared in 50 mM HEPES pH 7.5, 0.01% BRIJ-35, 10 mM MgCl 2, 1 mM EGTA. The final 10 μL kinase reaction consists of 30 - 120 ng Clk1 and 2 μM Ser/Thr 09 in 50 mM HEPES pH 7.5, 0.01% BRIJ-35, 10 mM MgCl 2, 1 mM EGTA. After the 1 h

Dyrk1A = Dyrk1A (Homo sapiens, UniProt Q13627); assay: Z'-LYTE kinase inhibition assay, Dyrk1A; assay type: biochemical; conditions: for inhibition at 1 µM: read-out: Dyrk1A % Inh. At 1 µM; for IC50: ATP conc. equivalent to Km
Excerpt: as §1, §2, §3, §4
(§5) two independent experiments. […]
3.1.2 Dyrk1A kinase assay specific conditions:
The 2x Dyrk1A / Ser/Thr 18 mixture is prepared in 50 mM HEPES pH 7.5, 0.01% BRIJ-35, 10 […]
2 µM Ser/Thr 18 in 50 mM HEPES pH 7.5, 0.01% BRIJ-35, 10 mM MgCl 2, 1 mM EGTA. […]
(§6) Development Reagent A is added. […]
(§7) MgCl2, 1 mM EGTA, 0.02% NaN3. […]

Dyrk1B = Dyrk1B (Homo sapiens, UniProt Q9Y463); assay: Z'-LYTE kinase inhibition assay, Dyrk1B; assay type: biochemical; conditions: for IC50: ATP conc. equivalent to Km; for inhibition at 1 µM: read-out: Dyrk1B % Inh. At 1 µM
Chain of Dyrk1B (Q9Y463 whole entry): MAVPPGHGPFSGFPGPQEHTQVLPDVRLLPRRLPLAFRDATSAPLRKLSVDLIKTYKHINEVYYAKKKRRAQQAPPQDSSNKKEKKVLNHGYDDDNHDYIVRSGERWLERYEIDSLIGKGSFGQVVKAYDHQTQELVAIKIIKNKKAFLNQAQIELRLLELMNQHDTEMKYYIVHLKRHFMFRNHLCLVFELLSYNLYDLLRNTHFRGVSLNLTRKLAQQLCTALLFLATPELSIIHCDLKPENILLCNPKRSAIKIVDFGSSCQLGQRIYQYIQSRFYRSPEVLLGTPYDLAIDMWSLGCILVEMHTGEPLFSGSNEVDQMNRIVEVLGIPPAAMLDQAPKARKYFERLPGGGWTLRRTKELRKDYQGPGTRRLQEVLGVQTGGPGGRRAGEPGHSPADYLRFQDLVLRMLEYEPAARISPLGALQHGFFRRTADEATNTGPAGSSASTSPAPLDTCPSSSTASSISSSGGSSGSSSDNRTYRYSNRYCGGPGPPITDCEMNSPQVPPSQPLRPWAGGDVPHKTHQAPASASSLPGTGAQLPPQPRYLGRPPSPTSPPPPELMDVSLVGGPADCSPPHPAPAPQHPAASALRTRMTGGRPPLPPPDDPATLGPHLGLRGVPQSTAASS
Excerpt: as §1, §2, §3, §4, §5
3.1.3 Dyrk1B kinase assay specific conditions:
The 2X Dyrk1B / Ser/Thr 18 mixture is prepared in 50 mM HEPES pH 6.5, 0.01% BRIJ-35, 10 […]
mM MgCl2, 1 mM EGTA, 0.02% NaN3.
as §6, §7

Chain of Clk1 (P49759 whole entry): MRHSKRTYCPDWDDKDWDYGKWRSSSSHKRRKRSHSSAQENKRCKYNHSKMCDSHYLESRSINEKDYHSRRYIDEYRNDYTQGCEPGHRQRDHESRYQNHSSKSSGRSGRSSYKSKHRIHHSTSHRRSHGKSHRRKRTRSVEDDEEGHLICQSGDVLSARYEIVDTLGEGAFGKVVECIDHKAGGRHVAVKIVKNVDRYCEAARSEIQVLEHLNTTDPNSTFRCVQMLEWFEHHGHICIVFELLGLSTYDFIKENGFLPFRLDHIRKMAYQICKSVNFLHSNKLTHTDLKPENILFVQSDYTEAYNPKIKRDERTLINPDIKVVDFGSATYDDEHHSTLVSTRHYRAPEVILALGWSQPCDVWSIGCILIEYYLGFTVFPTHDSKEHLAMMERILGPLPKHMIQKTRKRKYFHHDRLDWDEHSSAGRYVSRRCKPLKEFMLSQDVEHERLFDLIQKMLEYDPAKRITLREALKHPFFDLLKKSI

IC50 (Clk1) [nM] | inhibition at 1 µM (Clk1) [%] | inhibition at 1 µM (Dyrk1A) [%] | IC50 (Dyrk1B) [nM] | inhibition at 1 µM (Dyrk1B) [%] | IC50 (Dyrk1A) [nM] | melting point [°C] | SMILES
740 | 60 | 46 | 833 | 60 |  |  | O=C(NCc1ccccc1)c1cc2cc(O)ccc2s1 [Compound 1, N-Benzyl-5-hydroxybenzo[b]thiophene-2-carboxamide]
769 | 61 | 61 |  | 46 | 700 | 140.2 to 142 | O=C(NCc1ccccc1Cl)c1cc2cc(O)ccc2s1 [Compound 2, N-(2-Chlorobenzyl)-5-hydroxybenzo[b]thiophene-2-carboxamide]
 | 40 | 7 |  | 0 |  | 182 to 183.7 | O=C(NCc1ccc(Cl)cc1)c1cc2cc(O)ccc2s1 [Compound 4, N-(4-Chlorobenzyl)-5-hydroxybenzo[b]thiophene-2-carboxamide]
778 | 63 | 48 | 722 | 62 |  | 199.8 to 201.7 | O=C(NCc1ccccc1F)c1cc2cc(O)ccc2s1 [Compound 5, N-(2-Fluorobenzyl)-5-hydroxybenzo[b]thiophene-2-carboxamide]
 | 50 | 26 |  | 38 |  | 195 to 197.2 | O=C(NCc1ccc(F)cc1)c1cc2cc(O)ccc2s1 [Compound 7, N-(4-Fluorobenzyl)-5-hydroxybenzo[b]thiophene-2-carboxamide]
594 | 63 | 61 |  | 48 | 853 | 159.1 to 161.2 | Cc1ccccc1CNC(=O)c1cc2cc(O)ccc2s1 [Compound 8, 5-Hydroxy-N-(2-methylbenzyl)benzo[b]thiophene-2-carboxamide]
787 | 61 | 33 |  | 40 |  | 176.3 to 178.4 | Cc1cccc(CNC(=O)c2cc3cc(O)ccc3s2)c1 [Compound 9, 5-Hydroxy-N-(3-methylbenzyl)benzo[b]thiophene-2-carboxamide]
 | 30 | 8 |  | 0 |  | 186.6 to 187.6 | Cc1ccc(CNC(=O)c2cc3cc(O)ccc3s2)cc1 [Compound 10, 5-Hydroxy-N-(4-methylbenzyl)benzo[b]thiophene-2-carboxamide]
 | 17 | 9 |  | 16 |  | 176.5 to 178 | COc1ccc(CNC(=O)c2cc3cc(O)ccc3s2)cc1 [Compound 13, 5-Hydroxy-N-(4-methoxybenzyl)benzo[b]thiophene-2-carboxamide]
744 | 61 | 41 |  | 12 |  | 189.4 to 192.1 | O=C(NCc1cc(Cl)cc(Cl)c1)c1cc2cc(O)ccc2s1 [Compound 14, N-(3,5-Dichlorobenzyl)-5-hydroxybenzo[b]thiophene-2-carboxamide]
779 | 61 | 53 | 645 | 61 |  | 199.7 to 201.9 | O=C(NCc1cccc(F)c1F)c1cc2cc(O)ccc2s1 [Compound 15, N-(2,3-Difluorobenzyl)-5-hydroxybenzo[b]thiophene-2-carboxamide]
 | 50 | 40 |  | 53 |  |  | O=C(NCc1ccc(F)cc1F)c1cc2cc(O)ccc2s1 [Compound 16, N-(2,4-Difluorobenzyl)-5-hydroxybenzo[b]thiophene-2-carboxamide]
 | 26 | 8 |  | 0 |  | 199 to 201 | O=C(NCc1cc(C(F)(F)F)cc(C(F)(F)F)c1)c1cc2cc(O)ccc2s1 [Compound 18, N-(3,5-Bis(trifluoromethyl)benzyl)-5-hydroxybenzo[b]thiophene-2-carboxamide]
 | 53 | 22 |  | 0 |  | 140.2 to 141.8 | Cc1cc(C)cc(CNC(=O)c2cc3cc(O)ccc3s2)c1 [Compound 19, N-(3,5-Dimethylbenzyl)-5-hydroxybenzo[b]thiophene-2-carboxamide]
 | 21 | 14 |  | 19 |  | 181.1 to 183.3 | COc1cccc(CNC(=O)c2cc3cc(O)ccc3s2)c1OC [Compound 20, N-(2,3-Dimethoxybenzyl)-5-hydroxybenzo[b]thiophene-2-carboxamide]
 | 43 | 9 |  | 17 |  | 163.3 to 164.5 | COc1ccc(CNC(=O)c2cc3cc(O)ccc3s2)c(OC)c1 [Compound 21, N-(2,4-Dimethoxybenzyl)-5-hydroxybenzo[b]thiophene-2-carboxamide]
 | 18 | 8 |  | 16 |  | 188.3 to 190.3 | COc1ccc(CNC(=O)c2cc3cc(O)ccc3s2)cc1OC [Compound 22, N-(3,4-Dimethoxybenzyl)-5-hydroxybenzo[b]thiophene-2-carboxamide]
 | 22 | 12 |  | 22 |  |  | COc1cc(CNC(=O)c2cc3cc(O)ccc3s2)cc(OC)c1 [Compound 23, N-(3,5-Dimethoxybenzyl)-5-hydroxybenzo[b]thiophene-2-carboxamide]
 | 33 | 12 |  | 21 |  | 198.8 to 200.8 | O=C(c1cc2cc(O)ccc2s1)N1CCc2ccccc2C1 [Compound 24, (3,4-Dihydroisoquinolin-2(1H)-yl)(5-hydroxybenzo[b]thiophen-2-yl)methanone]
608 | 62 | 13 |  | 24 |  | 224.9 to 226 | O=C(c1cc2cc(O)ccc2s1)N1Cc2ccc(Cl)cc2C1 [Compound 25, (5-Chloroisoindolin-2-yl)(5-hydroxybenzo[b]thiophen-2-yl)methanone]
 | 47 | 34 |  | 39 |  | 198 to 200.8 | O=C(NCc1cccnc1)c1cc2cc(O)ccc2s1 [Compound 26, 5-Hydroxy-N-(pyridin-3-ylmethyl)benzo[b]thiophene-2-carboxamide]
705 | 60 | 53 | 703 | 61 |  | 139.6 to 141.4 | O=C(NCc1cccs1)c1cc2cc(O)ccc2s1 [Compound 27, 5-Hydroxy-N-(thiophen-2-ylmethyl)benzo[b]thiophene-2-carboxamide]
585 | 61 | 66 |  | 52 | 779 | 99.2 to 101.6 | O=C(NCc1ccco1)c1cc2cc(O)ccc2s1 [Compound 28, N-(Furan-2-Ylmethyl)-5-hydroxybenzo[b]thiophene-2-carboxamide]
753 | 61 | 29 |  | 48 |  | 99.2 to 101.1 | O=C(NCCc1ccccc1)c1cc2cc(O)ccc2s1 [Compound 29, 5-Hydroxy-N-phenethylbenzo[b]thiophene-2-carboxamide]
350 | 74 | 20 |  | 40 |  | 211.4 to 213 | O=C(NCCc1c[nH]c2ccccc12)c1cc2cc(O)ccc2s1 [Compound 30, N-(2-(1H-Indol-3-yl)ethyl)-5-hydroxybenzo[b]thiophene-2-carboxamide]
